One molecule from ChEMBL document CHEMBL4823249, “Discovery of a Pyrimidinedione Derivative as a Potent and Orally Bioavailable Axl Inhibitor” (J Med Chem, 2021) can be followed below.

As a reminder, the IC50 is the concentration at which inhibition is half-maximal. What is called Cmax is the maximum level reached in the sampled fluid or tissue. Broadly, the AUC(0-inf) is total exposure, with the tail of the curve extrapolated. Low values mean low exposure, high ones high exposure. As a reminder, the Tmax is the time from dosing to the highest level.

One data set relates to BT-474. As to the kind of experiment: Antiproliferative activity against human BT-474 cells incubated for 72 hrs by SRB or CCK8 assay. The format is functional, cell-based. The conditions noted are these: BT-474, 72 h. (In general: Tetrazolium assays rely on reduction of a dye to a coloured formazan, in cell work by metabolically active cells.)
The target in data set [1] is Calcium/calmodulin-dependent protein kinase type 1 (Homo sapiens, UniProt Q14012). As to the kind of experiment: Inhibition of recombinant human CaMK1 (2 to end residues) using […] as substrate incubated for 40 mins in presence of [gamma-33ATP] by scintillation counting based radiometry assay.
For the next data set, the target named is CDK6/cyclin D3 (Homo sapiens, UniProt Q00534). Put plainly: Inhibition of recombinant full length human CDK6/CyclinD3C using Rb fragment as substrate incubated for 40 mins in presence of [gamma-33ATP] by scintillation counting based radiometry assay. The format is protein-complex assay.
For a further data set, the system named is MDA-MB-231. As to the kind of experiment: Antiproliferative activity against human MDA-MB-231 cells incubated for 72 hrs by SRB or CCK8 assay. The settings on record: MDA-MB-231, 72 h. In kind it is functional, cell-based.
Data set [2] can be described thus: Cmax in Sprague-Dawley rat at 3 mg/kg, po measured upto 24 hrs by LC-MS analysis. The arrangement: route oral, dose 3 mg/kg, time <=24. The settings on record: in vivo. The format is ADME, organism-based.
The nature of data set [3]: AUC(0 to infinity) in ICR mouse at 3 mg/kg, po measured upto 24 hrs by LC-MS analysis. The settings on record: in vivo. The arrangement: route oral, dose 3 mg/kg, time <=24. In kind it is ADME, organism-based.
The next data set deals with HCC78. As to the kind of experiment: Antiproliferative activity against human HCC78 cells incubated for 72 hrs by SRB or CCK8 assay. The format is functional, cell-based. The conditions noted are these: HCC78, 72 h.
Data set [4] deals with PI3-kinase p110-delta/p85-alpha (Homo sapiens, UniProt O00329). As to the kind of experiment: Inhibition of recombinant human full length PI3K p110delta/p85a using phosphatidylinositol-4, 5-bisphosphate as substrate incubated for 40 mins in presence of [gamma33P]ATP by scintillation counting based radiometry assay. The format is protein-complex assay.
Data set [5] has as its target Cyclin-dependent kinase 1/cyclin B1 (Homo sapiens, UniProt P06493). Put plainly: Inhibition of recombinant full length human CDK1/CyclinB using Histone H1 as substrate incubated for 40 mins in presence of [gamma-33ATP] by scintillation counting based radiometry assay. The format is protein-complex assay.
Data set [6] concerns the target ALK tyrosine kinase receptor (Homo sapiens, UniProt Q9UM73). As to the kind of experiment: Inhibition of human ALK (1058 to end residues) using KKKSPGEYVNIEFG as substrate incubated for 40 mins in presence of [gamma-33ATP] by scintillation counting based radiometry assay.
For data set [7], the target named is Ribosomal protein S6 kinase alpha-1 (Homo sapiens, UniProt Q15418). As to the kind of experiment: Inhibition of recombinant full length human Rsk1 using KKKNRTLSVA as substrate incubated for 40 mins in presence of [gamma33P]ATP by scintillation counting based radiometry assay.
In a further data set the test system is MKN-45. As to the kind of experiment: Antiproliferative activity against human MKN-45 cells incubated for 72 hrs by SRB or CCK8 assay. The conditions noted are these: MKN-45, 72 h. In kind it is functional, cell-based.
Data set [8] addresses T1, Tyrosine-protein kinase receptor UFO (Mus musculus) (UniProt Q00993).
T1 sequence (whole entry): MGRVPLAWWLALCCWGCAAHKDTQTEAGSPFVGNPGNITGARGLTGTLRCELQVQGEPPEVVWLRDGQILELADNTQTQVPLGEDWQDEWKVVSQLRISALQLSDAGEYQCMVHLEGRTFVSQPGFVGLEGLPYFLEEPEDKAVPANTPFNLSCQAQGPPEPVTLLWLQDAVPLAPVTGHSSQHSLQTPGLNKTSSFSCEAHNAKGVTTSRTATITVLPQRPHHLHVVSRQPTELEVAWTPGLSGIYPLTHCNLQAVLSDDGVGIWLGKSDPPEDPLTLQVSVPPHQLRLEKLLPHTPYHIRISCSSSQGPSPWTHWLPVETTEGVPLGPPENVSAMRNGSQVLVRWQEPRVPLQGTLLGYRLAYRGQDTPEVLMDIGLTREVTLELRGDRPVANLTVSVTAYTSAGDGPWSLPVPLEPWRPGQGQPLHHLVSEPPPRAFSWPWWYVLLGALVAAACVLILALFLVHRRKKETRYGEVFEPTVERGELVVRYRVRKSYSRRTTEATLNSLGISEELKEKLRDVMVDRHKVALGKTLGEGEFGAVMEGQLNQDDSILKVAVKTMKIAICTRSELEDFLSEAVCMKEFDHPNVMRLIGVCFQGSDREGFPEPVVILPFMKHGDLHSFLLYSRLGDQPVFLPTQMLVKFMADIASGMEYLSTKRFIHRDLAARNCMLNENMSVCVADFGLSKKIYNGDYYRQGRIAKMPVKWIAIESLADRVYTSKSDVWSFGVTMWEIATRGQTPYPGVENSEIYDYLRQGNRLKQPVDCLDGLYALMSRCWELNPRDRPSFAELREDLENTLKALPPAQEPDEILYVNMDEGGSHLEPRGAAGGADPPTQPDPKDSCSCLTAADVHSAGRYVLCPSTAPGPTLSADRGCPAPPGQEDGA
Put plainly: Inhibition of AXL in mouse BaF3/TEL-AXL cells assessed as reduction in phosphorylation of AXL at 1 to 15 nM after 2 hrs by Western blotting analysis. The conditions noted are these: dose 1-15 nM. The format is cell-based. A general note: A western blot detects proteins with antibodies after separation by electrophoresis.

For the next data set, the system named is MM1.S. Put plainly: Antiproliferative activity against human MM1.S cells incubated for 72 hrs by SRB or CCK8 assay. The format is functional, cell-based.
Data set [9] in a line: AUC(0 to infinity) in Sprague-Dawley rat at 3 mg/kg, po measured upto 24 hrs by LC-MS analysis. The arrangement: route oral, dose 3 mg/kg, time <=24. The settings on record: in vivo. The format is ADME, organism-based.
The subject of data set [10] is NCI-H1299. Put plainly: Inhibition of Gas6-stimulated cell migration in human NCI-H1299 cells at […] after 24 hrs by crystal violet staining based microscopic analysis. The settings on record: dose lower 5.0 µM. In kind it is functional.
The target of data set [11] is Vascular endothelial growth factor receptor 2 (Homo sapiens, UniProt P35968). Put plainly: Inhibition of recombinant human KDR (790 to end residues) using myelin basic protein as substrate incubated for 40 mins by [gamma-33P]-ATP scintillation counting based radiometry assay.
Another data set concerns HT-29. Put plainly: Antiproliferative activity against human HT-29 cells incubated for 72 hrs by SRB or CCK8 assay. The settings on record: HT-29, 72 h. In kind it is functional, cell-based.
Data set [12] in a line: Tmax in Sprague-Dawley rat at 3 mg/kg, po measured upto 24 hrs by LC-MS analysis. The format is ADME, organism-based. The settings on record: in vivo.
Data set [13] concerns NCI-H1299. As to the kind of experiment: Antiproliferative activity against human NCI-H1299 cells at 5 to 125 uM incubated for 72 hrs by SRB or CCK8 assay. The conditions noted are these: dose 5-125 µM. In kind it is functional, cell-based.
Data set [14] addresses Tyrosine-protein kinase Mer (Homo sapiens, UniProt Q12866). Put plainly: Inhibition of recombinant human MER (557 to 882 residues) using GGMEDIYFEFMGG as substrate incubated for 40 mins in presence of [gamma-33ATP by scintillation counting based radiometry assay.
For data set [15], the target named is Mitogen-activated protein kinase kinase kinase kinase 2 (Homo sapiens, UniProt Q12851). Put plainly: Inhibition of recombinant human GCK (1 to 473 residues) using myelin basic protein as substrate incubated for 40 mins in presence of [gamma-33ATP] by scintillation counting based radiometry assay.
Data set [16] is described as follows: Cmax in ICR mouse at 3 mg/kg, po measured upto 24 hrs by LC-MS analysis. In kind it is ADME, organism-based. The settings on record: in vivo. Also noted: route oral, dose 3 mg/kg, time <=24.
Data set [17] deals with Receptor-type tyrosine-protein kinase FLT3 (Homo sapiens, UniProt P36888). As to the kind of experiment: Inhibition of recombinant human FLT3 (564 to end residues) using EAIYAAPFAKKK as substrate incubated for 40 mins in presence of [gamma-33ATP] by scintillation counting based radiometry assay.

Activity calls are given as the source filed them. The rule behind the calls is not given here.

Mitogen-activated protein kinase kinase kinase kinase 2, sequence (Q12851 whole entry, the tested form may be a part): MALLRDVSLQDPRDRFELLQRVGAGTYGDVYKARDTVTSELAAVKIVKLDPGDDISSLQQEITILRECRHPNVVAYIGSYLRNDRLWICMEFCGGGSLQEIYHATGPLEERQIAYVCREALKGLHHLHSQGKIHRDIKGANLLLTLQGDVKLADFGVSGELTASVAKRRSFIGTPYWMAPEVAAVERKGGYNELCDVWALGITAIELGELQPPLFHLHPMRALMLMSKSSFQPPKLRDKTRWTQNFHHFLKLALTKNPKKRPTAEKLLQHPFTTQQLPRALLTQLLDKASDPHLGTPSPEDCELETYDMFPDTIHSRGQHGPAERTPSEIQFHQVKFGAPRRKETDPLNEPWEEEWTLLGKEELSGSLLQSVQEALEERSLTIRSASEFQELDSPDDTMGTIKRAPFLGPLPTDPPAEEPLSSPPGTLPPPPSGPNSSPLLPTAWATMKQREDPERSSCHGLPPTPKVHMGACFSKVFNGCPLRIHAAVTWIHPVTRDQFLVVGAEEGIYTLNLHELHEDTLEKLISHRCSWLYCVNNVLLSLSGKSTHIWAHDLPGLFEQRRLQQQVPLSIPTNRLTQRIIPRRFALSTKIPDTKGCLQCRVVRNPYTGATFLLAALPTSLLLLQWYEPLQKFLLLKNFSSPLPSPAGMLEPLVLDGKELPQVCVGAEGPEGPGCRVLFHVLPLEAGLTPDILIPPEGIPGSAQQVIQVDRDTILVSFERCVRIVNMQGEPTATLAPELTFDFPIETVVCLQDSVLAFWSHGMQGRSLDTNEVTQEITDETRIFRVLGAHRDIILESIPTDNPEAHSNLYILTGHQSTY
Cyclin-dependent kinase 1/cyclin B1, sequence (P06493 whole entry): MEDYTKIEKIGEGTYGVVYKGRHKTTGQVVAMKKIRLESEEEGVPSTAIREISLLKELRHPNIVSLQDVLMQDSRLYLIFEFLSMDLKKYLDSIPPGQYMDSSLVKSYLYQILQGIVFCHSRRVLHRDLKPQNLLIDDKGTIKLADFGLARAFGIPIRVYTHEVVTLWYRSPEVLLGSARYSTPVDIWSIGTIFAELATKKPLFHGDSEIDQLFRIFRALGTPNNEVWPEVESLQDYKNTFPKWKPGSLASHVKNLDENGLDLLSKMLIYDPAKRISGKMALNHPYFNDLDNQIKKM
Cyclin-dependent kinase 1/cyclin B1, sequence (P14635 whole entry, further chain): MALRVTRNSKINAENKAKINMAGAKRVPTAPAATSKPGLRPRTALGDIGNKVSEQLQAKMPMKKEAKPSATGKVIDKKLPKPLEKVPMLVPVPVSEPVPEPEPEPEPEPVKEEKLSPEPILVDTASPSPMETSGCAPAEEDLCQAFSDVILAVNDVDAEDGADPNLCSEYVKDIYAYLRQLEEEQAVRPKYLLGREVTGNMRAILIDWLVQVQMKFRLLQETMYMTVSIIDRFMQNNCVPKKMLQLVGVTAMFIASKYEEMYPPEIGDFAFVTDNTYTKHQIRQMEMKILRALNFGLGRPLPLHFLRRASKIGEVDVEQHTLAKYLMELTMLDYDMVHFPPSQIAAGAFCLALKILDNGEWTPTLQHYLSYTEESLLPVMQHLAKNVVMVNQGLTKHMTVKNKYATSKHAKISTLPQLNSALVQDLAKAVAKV
ALK tyrosine kinase receptor, sequence (Q9UM73 whole entry): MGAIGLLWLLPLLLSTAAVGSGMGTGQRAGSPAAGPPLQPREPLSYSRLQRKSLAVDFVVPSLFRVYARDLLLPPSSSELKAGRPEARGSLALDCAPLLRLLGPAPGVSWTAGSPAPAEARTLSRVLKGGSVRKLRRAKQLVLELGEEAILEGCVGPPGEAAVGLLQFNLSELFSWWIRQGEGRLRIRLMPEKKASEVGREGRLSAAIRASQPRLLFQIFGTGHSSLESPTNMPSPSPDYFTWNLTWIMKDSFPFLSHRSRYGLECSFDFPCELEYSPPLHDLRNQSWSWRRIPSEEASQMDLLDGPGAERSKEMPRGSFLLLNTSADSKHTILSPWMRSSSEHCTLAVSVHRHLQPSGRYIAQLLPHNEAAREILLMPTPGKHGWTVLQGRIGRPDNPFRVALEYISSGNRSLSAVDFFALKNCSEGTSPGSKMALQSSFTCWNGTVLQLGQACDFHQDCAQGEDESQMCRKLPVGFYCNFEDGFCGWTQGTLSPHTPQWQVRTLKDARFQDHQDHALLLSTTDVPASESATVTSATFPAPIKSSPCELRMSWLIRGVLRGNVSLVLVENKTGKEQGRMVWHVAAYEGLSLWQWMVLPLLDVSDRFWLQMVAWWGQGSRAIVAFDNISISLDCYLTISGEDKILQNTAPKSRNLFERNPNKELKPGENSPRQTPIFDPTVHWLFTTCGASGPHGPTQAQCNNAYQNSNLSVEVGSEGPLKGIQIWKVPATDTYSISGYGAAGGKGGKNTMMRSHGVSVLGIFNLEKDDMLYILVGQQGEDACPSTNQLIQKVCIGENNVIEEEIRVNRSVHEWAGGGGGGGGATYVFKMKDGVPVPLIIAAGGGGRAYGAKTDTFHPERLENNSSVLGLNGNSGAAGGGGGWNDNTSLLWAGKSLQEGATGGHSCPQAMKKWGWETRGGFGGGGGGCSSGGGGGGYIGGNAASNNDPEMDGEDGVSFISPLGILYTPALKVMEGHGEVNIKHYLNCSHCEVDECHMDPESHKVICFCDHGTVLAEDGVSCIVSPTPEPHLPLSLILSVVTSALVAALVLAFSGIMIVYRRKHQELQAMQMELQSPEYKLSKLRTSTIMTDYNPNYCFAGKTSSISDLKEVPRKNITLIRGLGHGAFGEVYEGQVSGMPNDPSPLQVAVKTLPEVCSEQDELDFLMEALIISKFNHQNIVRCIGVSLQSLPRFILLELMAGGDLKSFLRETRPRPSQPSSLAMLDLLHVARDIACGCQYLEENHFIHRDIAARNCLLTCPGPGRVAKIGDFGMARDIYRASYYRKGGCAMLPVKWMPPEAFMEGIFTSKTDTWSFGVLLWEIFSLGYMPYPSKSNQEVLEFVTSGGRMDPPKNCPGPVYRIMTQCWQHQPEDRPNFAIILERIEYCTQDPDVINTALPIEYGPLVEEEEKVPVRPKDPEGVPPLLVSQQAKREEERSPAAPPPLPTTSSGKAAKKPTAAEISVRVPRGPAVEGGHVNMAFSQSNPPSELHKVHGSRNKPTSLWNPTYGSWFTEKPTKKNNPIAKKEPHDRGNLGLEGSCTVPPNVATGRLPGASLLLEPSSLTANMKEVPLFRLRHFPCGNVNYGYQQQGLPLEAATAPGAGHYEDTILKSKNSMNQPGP
Calcium/calmodulin-dependent protein kinase type 1, sequence (Q14012 whole entry, the tested form may be a part): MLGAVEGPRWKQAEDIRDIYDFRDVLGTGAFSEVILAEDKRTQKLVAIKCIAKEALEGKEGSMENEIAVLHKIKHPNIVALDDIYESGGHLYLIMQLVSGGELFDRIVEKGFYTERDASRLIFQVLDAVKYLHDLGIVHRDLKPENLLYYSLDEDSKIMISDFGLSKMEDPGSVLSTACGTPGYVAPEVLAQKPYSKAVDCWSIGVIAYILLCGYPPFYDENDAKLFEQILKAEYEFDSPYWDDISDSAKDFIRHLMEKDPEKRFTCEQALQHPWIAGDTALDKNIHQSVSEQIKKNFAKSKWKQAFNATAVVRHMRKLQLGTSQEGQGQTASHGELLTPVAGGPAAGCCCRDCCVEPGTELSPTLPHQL
Ribosomal protein S6 kinase alpha-1, sequence (Q15418 whole entry): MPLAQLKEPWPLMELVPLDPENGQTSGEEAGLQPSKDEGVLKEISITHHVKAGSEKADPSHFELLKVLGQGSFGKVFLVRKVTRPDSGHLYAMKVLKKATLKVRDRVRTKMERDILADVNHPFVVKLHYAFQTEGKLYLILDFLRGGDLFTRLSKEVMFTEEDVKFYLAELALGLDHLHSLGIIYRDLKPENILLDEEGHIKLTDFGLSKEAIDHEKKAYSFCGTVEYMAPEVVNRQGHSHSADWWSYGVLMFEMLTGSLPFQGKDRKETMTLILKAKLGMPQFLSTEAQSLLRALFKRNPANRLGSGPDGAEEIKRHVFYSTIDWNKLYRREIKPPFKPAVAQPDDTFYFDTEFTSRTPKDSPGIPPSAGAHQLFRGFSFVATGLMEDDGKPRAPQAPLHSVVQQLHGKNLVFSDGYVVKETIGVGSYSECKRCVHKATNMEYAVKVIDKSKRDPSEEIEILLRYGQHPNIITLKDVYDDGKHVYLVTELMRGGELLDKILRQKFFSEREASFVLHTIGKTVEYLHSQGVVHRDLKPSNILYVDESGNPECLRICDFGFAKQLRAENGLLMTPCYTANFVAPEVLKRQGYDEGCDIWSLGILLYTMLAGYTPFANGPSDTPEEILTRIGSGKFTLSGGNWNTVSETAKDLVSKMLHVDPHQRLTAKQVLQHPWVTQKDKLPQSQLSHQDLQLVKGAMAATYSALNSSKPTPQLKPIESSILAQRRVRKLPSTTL
CDK6/cyclin D3, sequence (P30281 whole entry, the tested form may be a part): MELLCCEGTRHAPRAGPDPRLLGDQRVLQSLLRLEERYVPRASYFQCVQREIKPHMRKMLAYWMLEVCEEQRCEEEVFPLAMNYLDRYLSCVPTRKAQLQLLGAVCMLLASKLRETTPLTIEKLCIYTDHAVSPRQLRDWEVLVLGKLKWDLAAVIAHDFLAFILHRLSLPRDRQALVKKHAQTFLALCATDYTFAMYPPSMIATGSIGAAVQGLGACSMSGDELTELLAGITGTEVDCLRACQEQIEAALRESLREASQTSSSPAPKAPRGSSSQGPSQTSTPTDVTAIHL
CDK6/cyclin D3, sequence (Q00534 whole entry, the tested form may be a part): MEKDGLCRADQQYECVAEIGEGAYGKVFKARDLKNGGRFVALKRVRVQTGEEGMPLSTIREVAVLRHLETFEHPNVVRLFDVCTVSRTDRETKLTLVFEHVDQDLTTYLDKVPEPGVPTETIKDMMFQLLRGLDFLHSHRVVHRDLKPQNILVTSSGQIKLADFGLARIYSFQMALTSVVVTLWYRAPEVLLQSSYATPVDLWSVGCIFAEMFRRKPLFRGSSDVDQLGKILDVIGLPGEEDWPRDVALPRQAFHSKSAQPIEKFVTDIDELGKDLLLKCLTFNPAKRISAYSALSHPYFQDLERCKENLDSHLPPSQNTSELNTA

For the molecule `CC(C)n1cc(C(=O)Nc2ccc(Oc3ccnc(NC(=O)C4CC4)c3)c(F)c2)c(=O)n(-c2ccc(F)cc2)c1=O`, the IC50 was above 10000 nM with BT-474; above 1000 nM in data set [1]; above 1000 nM at CDK6/cyclin D3; above 10000 nM in the data set on MDA-MB-231; above 10000 nM in the data set with HCC78; above 1000 nM in data set [4]. Moreover, the IC50 in [5] was above 1000 nM; in data set [6], above 1000 nM; in [7], above 1000 nM; in the data set on MKN-45, 107 nM; in the data set with MM1.S it was above 10000 nM; in [11] it was above 1000 nM. In addition, the IC50 is above 10000 nM in the data set on HT-29, below 10 nM in data set [14], above 1000 nM in data set [15] and above 1000 nM in [17]. The results for the Cmax in data set [2] and in data set [16] were 4560 ng/mL and 2990 ng/mL, respectively. Moreover, the values for the AUC(0-inf) in data set [3] and in [9] were 25100 ng·h/mL and 43900 ng·h/mL, respectively. In addition, the inhibition entry (in [8]; with NCI-H1299 [10]) was “Active” throughout. In data set [12], the Tmax stood at 1.17 h. Further, the outcome in the data set on NCI-H1299 [13] was inactive.
